# Measurements reported in patent US10106559B2, “Substituted tetrahydrocarbazole and carbazole carboxamide compounds” (BRISTOL-MYERS SQUIBB COMPANY, priority 2013, dated 2018).
# Test system: CD69 expression on B cells in human whole blood
# Assay: Whole Blood Assay of BCR-Stimulated CD69 Expression on B Cells
# Type: cell-based
# Settings: B-cell
row,SMILES,IC50
1,"COc1cccc2c(=O)n(-c3cccc(-c4c(Cl)cc(C(N)=O)c5[nH]c6cc(C(C)(C)O)ccc6c45)c3C)c(=O)n(C)c12 [Example 7, 3-Chloro-7-(2-hydroxypropan-2-yl)-4-(R)-(3-(8-methoxy-1-methyl-2,4-dioxo-1,2-dihydroquinazolin-3(4H)-yl)-2-methylphenyl)-9H-carbazole-1-carboxamide]",130 nM
2,"Cc1c(-c2c(Cl)cc(C(N)=O)c3[nH]c4cc(C(C)(C)O)ccc4c23)cccc1-n1c(=O)c2cccc(C)c2n(C)c1=O [Example 4, 3-Chloro-4-(R)-(3-(1,8-dimethyl-2,4-dioxo-1,2-dihydroquinazolin-3(4H)-yl)-2-methylphenyl)-7-(2-hydroxypropan-2-yl)-9H-carbazole-1-carboxamide]",180 nM
3,"Cc1c(-c2c(Cl)cc(C(N)=O)c3[nH]c4cc(C(C)(C)O)ccc4c23)cccc1-n1c(=O)c2ccc(F)cc2n(C)c1=O [Example 9, 3-Chloro-4-(R)-(3-(7-fluoro-1-methyl-2,4-dioxo-1,2-dihydroquinazolin-3(4H)-yl)-2-methylphenyl)-7-(2-hydroxypropan-2-yl)-9H-carbazole-1-carboxamide]",76 nM
4,"Cc1c(-c2c(Cl)cc(C(N)=O)c3[nH]c4cc(C(C)(C)O)ccc4c23)cccc1-n1c(=O)c2cc(F)ccc2n(C)c1=O [Example 8, 3-Chloro-4-(R)-(3-(6-fluoro-1-methyl-2,4-dioxo-1,2-dihydroquinazolin-3(4H)-yl)-2-methylphenyl)-7-(2-hydroxypropan-2-yl)-9H-carbazole-1-carboxamide]",75 nM
5,"Cc1c(-c2c(Cl)cc(C(N)=O)c3[nH]c4cc(C(C)(C)O)ccc4c23)cccc1-n1c(=O)c2ccccc2n(C)c1=O [Example 3, 3-Chloro-7-(2-hydroxypropan-2-yl)-4-(R)-(2-methyl-3-(1-methyl-2,4-dioxo-1,2-dihydroquinazolin-3(4H)-yl)phenyl)-9H-carbazole-1-carboxamide]",130 nM
6,"Cc1c(-c2c(Cl)cc(C(N)=O)c3[nH]c4c(c23)CC[C@H](C(C)(C)O)C4)cccc1-n1c(=O)c2cccc(F)c2n(C)c1=O [Example 25, 6-Chloro-5-(3-(8-fluoro-1-methyl-2,4-dioxo-1,2-dihydroquinazolin-3(4H)-yl)-2-methylphenyl)-2-(S)-(2-hydroxypropan-2-yl)-2,3,4,9-tetrahydro-1H-carbazole-8-carboxamide]",200 nM
7,"Cc1c(-c2c(Cl)cc(C(N)=O)c3[nH]c4cc(C(C)(C)O)ccc4c23)cccc1-n1c(=O)[nH]c2c(F)cc(F)cc2c1=O (racemic) [Example 10, 3-Chloro-4-(RS)-(3-(RS)-(6,8-difluoro-2,4-dioxo-1,2-dihydroquinazolin-3(4H)-yl)-2-methylphenyl)-7-(2-hydroxypropan-2-yl)-9H-carbazole-1-carboxamide]",110 nM

# Results, then the compound that gave them:
row,IC50,SMILES
1,74 nM,"[2H]C([2H])([2H])n1c(=O)n(-c2cccc(-c3c(F)cc(C(N)=O)c4[nH]c5c(c34)CC[C@H](C(C)(C)O)C5)c2C)c(=O)c2cccc(F)c21 (single isomer, unassigned) [Example 62]"
2,190 nM,"Cc1c(-c2c(F)cc(C(N)=O)c3[nH]c4c(c23)CC[C@H](C(C)(C)O)C4)cccc1-n1c(=O)[nH]c2c(Cl)cccc2c1=O (single isomer, unassigned) [Example 63]"
3,88 nM,"Cc1c(-c2c(F)cc(C(N)=O)c3[nH]c4c(c23)CC[C@H](C(C)(C)O)C4)cccc1-n1c(=O)cc2c(Cl)cccn2c1=O (single isomer, unassigned) [Example 64]"
4,260 nM,"Cc1c(-c2c(F)cc(C(N)=O)c3[nH]c4c(c23)CC[C@H](C(C)(C)O)C4)cccc1-n1c(=O)[nH]c2c(F)cccc2c1=O (single isomer, unassigned) [Example 59]"
5,27 nM,"CC(C)(O)c1ccc2c(c1)[nH]c1c(C(N)=O)cc(Cl)c(-c3cccc(-n4c(=O)[nH]c5c(F)cccc5c4=O)c3Cl)c12 [Example 47, 3-Chloro-4-(R)-(2-chloro-3-(8-fluoro-2,4-dioxo-1,2-dihydroquinazolin-3(4H)-yl)phenyl)-7-(2-hydroxypropan-2-yl)-9H-carbazole-1-carboxamide]"
6,88 nM,"Cn1c(=O)n(-c2cccc(-c3c(F)cc(C(N)=O)c4[nH]c5cc(C(C)(C)O)ccc5c34)c2Cl)c(=O)c2cccc(F)c21 [Example 46, 4-(2-Chloro-3-(8-fluoro-1-methyl-2,4-dioxo-1,2-dihydroquinazolin-3(4H)-yl)phenyl)-3-fluoro-7-(2-hydroxypropan-2-yl)-9H-carbazole-1-carboxamide]"
7,200 nM,"COc1cccn2c(=O)n(-c3cccc(-c4c(Cl)cc(C(N)=O)c5[nH]c6cc(C(C)(C)O)ccc6c45)c3C)c(=O)cc12 [Example 37, 3-Chloro-7-(2-hydroxypropan-2-yl)-4-(3-(5-methoxy-1,3-dioxo-1H-pyrido[1,2-c]pyrimidin-2(3H)-yl)-2-methylphenyl)-9H-carbazole-1-carboxamide]"
8,25 nM,"[2H]C([2H])([2H])n1c(=O)n(-c2cccc(-c3c(F)cc(C(N)=O)c4[nH]c5cc(C(C)(C)O)ccc5c34)c2C)c(=O)c2cccc(F)c21 (single isomer, unassigned) [Example 52]"

# Molecular target: Jak2 tyrosine kinase (Homo sapiens (Human), UniProt O60674)
# Sequence (O60674 whole entry): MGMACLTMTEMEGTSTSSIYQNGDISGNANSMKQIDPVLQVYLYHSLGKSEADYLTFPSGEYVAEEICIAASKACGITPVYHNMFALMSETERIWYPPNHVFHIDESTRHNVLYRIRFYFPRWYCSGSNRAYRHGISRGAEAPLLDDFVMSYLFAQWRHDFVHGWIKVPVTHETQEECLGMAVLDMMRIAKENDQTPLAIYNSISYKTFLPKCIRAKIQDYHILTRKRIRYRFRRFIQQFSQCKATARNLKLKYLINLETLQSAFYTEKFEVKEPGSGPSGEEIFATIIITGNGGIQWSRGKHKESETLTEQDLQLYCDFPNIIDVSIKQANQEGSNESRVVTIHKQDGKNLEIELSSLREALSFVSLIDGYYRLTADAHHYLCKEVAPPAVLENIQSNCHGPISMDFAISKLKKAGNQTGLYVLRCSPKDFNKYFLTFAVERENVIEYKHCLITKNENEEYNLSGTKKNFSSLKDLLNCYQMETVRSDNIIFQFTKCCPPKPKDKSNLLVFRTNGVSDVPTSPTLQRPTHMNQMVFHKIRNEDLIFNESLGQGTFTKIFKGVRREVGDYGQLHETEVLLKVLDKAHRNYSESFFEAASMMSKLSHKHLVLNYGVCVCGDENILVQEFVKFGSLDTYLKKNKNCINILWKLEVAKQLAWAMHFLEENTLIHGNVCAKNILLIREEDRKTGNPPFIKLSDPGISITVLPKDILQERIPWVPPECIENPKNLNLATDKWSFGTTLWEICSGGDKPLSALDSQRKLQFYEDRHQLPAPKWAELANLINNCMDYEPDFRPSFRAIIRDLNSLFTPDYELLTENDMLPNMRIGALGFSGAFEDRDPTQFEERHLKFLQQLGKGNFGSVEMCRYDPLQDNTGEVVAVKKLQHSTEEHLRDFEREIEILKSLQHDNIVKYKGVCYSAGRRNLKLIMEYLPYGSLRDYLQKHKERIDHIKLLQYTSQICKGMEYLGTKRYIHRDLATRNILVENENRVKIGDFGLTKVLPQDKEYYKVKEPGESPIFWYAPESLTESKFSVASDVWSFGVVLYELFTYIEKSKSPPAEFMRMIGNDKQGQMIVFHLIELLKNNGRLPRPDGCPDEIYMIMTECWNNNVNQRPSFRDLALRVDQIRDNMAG
# Assay: Jak2 Tyrosine Kinase Assay
# Type: biochemical
# Settings: not given
row,IC50,SMILES
1,580 nM,"Cc1c(-c2c(F)cc(C(N)=O)c3[nH]c4cc(C(C)(C)O)ccc4c23)cccc1-n1c(=O)[nH]c2c(F)cc(F)cc2c1=O (single isomer, unassigned) [Example 73]"

# Same assay, conditions: Jak2 IC50 over Btk IC50; larger value = more selective for Btk
row,Ratio of Jak2/Btk IC50 values,SMILES
1,29,"Cc1nc(C(N)=O)c2[nH]c3cc(C(C)(C)O)ccc3c2c1-c1cccc(-n2cnc3ccccc3c2=O)c1C [Comparative Example 76, 7-(2-Hydroxypropan-2-yl)-3-methyl-4-(2-methyl-3-(4-oxoquinazolin-3(4H)-yl)phenyl)-9H-pyrido[3,4-b]indole-1-carboxamide, reference compound]"

# Same assay, conditions: selectivity: Jak2 IC50 divided by Btk IC50
row,SMILES,Ratio of Jak2/Btk IC50 values
1,"Cc1c(-c2c(C#N)cc(C(N)=O)c3[nH]c4cc(C(C)(C)O)ccc4c23)cccc1-n1c(=O)c2cccc(F)c2n(C)c1=O [Example 15, 3-Cyano-4-(S)-(3-(8-fluoro-1-methyl-2,4-dioxo-1,2-dihydroquinazolin-3(4H)-yl)-2-methylphenyl)-7-(2-hydroxypropan-2-yl)-9H-carbazole-1-carboxamide]",2400
2,"COc1ccc2c(=O)n(-c3cccc(-c4c(Cl)cc(C(N)=O)c5[nH]c6cc(C(C)(C)O)ccc6c45)c3C)c(=O)n(C)c2c1 (single isomer, unassigned) [Example 6]",1400
3,"Cc1nc(C(N)=O)c2[nH]c3cc(C(C)(C)O)ccc3c2c1-c1cccc(-n2cnc3ccccc3c2=O)c1C [Comparative Example 76, 7-(2-Hydroxypropan-2-yl)-3-methyl-4-(2-methyl-3-(4-oxoquinazolin-3(4H)-yl)phenyl)-9H-pyrido[3,4-b]indole-1-carboxamide, reference compound]",29
4,"COc1ccc2c(=O)n(-c3cccc(-c4c(Cl)cc(C(N)=O)c5[nH]c6cc(C(C)(C)O)ccc6c45)c3C)c(=O)n(C)c2c1 (single isomer, unassigned) [Example 5]",>950
5,"Cc1c(-c2c(F)cc(C(N)=O)c3[nH]c4c(c23)CC[C@H](C(C)(C)O)C4)cccc1-n1c(=O)c2cccc(F)c2n(C)c1=O (atropisomer, axis not shown) [Example 28, 6-Fluoro-5-(R)-(3-(S)-(8-fluoro-1-methyl-2,4-dioxo-1,2-dihydroquinazolin-3(4H)-yl)-2-methylphenyl)-2-(S)-(2-hydroxypropan-2-yl)-2,3,4,9-tetrahydro-1H-carbazole-8-carboxamide]",59000

# Further lines, results first:
row,Ratio of Jak2/Btk IC50 values,SMILES
1,>4900,"[2H]C([2H])([2H])n1c(=O)n(-c2cccc(-c3c(F)cc(C(N)=O)c4[nH]c5c(c34)CC[C@H](C(C)(C)O)C5)c2C)c(=O)c2cccc(F)c21 (single isomer, unassigned) [Example 62]"
2,24000,"Cc1c(-c2c(F)cc(C(N)=O)c3[nH]c4c(c23)CC[C@H](C(C)(C)O)C4)cccc1-n1c(=O)[nH]c2c(Cl)cccc2c1=O (single isomer, unassigned) [Example 63]"
3,880,"Cc1c(-c2c(Cl)cc(C(N)=O)c3[nH]c4cc(C(C)(C)O)ccc4c23)cccc1-n1c(=O)cc2sccn2c1=O [Example 38, 3-Chloro-4-(R)-(3-(5,7-dioxo-5H-thiazolo[3,2-c]pyrimidin-6(7H)-yl)-2-methylphenyl)-7-(2-hydroxypropan-2-yl)-9H-carbazole-1-carboxamide]"
4,1600,"Cc1c(-c2c(Cl)cc(C(N)=O)c3[nH]c4cc(C(C)(C)O)ccc4c23)cccc1-n1c(=O)cc2c(F)cccn2c1=O [Example 36, 3-Chloro-4-(R)-(3-(5-fluoro-1,3-dioxo-1H-pyrido[1,2-c]pyrimidin-2(3H)-yl)-2-methylphenyl)-7-(2-hydroxypropan-2-yl)-9H-carbazole-1-carboxamide]"
5,4000,"Cc1c(-c2c(F)cc(C(N)=O)c3[nH]c4cc(C(C)(C)O)ccc4c23)cccc1-n1c(=O)cc2c(F)cccn2c1=O [Example 41, 3-Fluoro-4-(R)-(3-(5-fluoro-1,3-dioxo-1H-pyrido[1,2-c]pyrimidin-2(3H)-yl)-2-methylphenyl)-7-(2-hydroxypropan-2-yl)-9H-carbazole-1-carboxamide]"
6,11000,"Cc1c(-c2c(F)cc(C(N)=O)c3[nH]c4c(c23)CC[C@H](C(C)(C)O)C4)cccc1-n1c(=O)cc2c(F)cccn2c1=O (single isomer, unassigned) [Example 69]"
7,3200,"Cc1c(-c2c(Cl)cc(C(N)=O)c3[nH]c4cc(C(C)(C)O)ccc4c23)cccc1-n1c(=O)cc2c(F)cccn2c1=O [Example 35, 3-Chloro-4-(R)-(3-(5-fluoro-1,3-dioxo-1H-pyrido[1,2-c]pyrimidin-2(3H)-yl)-2-methylphenyl)-7-(2-hydroxypropan-2-yl)-9H-carbazole-1-carboxamide]"
8,440,"Cc1c(-c2c(Cl)cc(C(N)=O)c3[nH]c4cc(C(C)(C)O)ccc4c23)cccc1-n1c(=O)cc2c(F)cccn2c1=O [Example 34, 3-Chloro-4-(3-(5-fluoro-1,3-dioxo-1H-pyrido[1,2-c]pyrimidin-2(3H)-yl)-2-methylphenyl)-7-(2-hydroxypropan-2-yl)-9H-carbazole-1-carboxamide]"
9,1200,"Cc1c(-c2c(Cl)cc(C(N)=O)c3[nH]c4cc(C(C)(C)O)ccc4c23)cccc1-n1c(=O)cc2sccn2c1=O [Example 39, 3-Chloro-4-(R)-(3-(5,7-dioxo-5H-thiazolo[3,2-c]pyrimidin-6(7H)-yl)-2-methylphenyl)-7-(2-hydroxypropan-2-yl)-9H-carbazole-1-carboxamide]"
10,690,"COc1cccn2c(=O)n(-c3cccc(-c4c(Cl)cc(C(N)=O)c5[nH]c6cc(C(C)(C)O)ccc6c45)c3C)c(=O)cc12 [Example 37, 3-Chloro-7-(2-hydroxypropan-2-yl)-4-(3-(5-methoxy-1,3-dioxo-1H-pyrido[1,2-c]pyrimidin-2(3H)-yl)-2-methylphenyl)-9H-carbazole-1-carboxamide]"
11,1800,"Cc1c(-c2c(F)cc(C(N)=O)c3[nH]c4cc(C(C)(C)O)ccc4c23)cccc1-n1c(=O)cc2c(F)cccn2c1=O [Example 40, 3-Fluoro-4-(R)-(3-(5-fluoro-1,3-dioxo-1H-pyrido[1,2-c]pyrimidin-2(3H)-yl)-2-methylphenyl)-7-(2-hydroxypropan-2-yl)-9H-carbazole-1-carboxamide]"
